Where only a bound is given, the exact number is not on record here.

The test has as its system PKB Ser473 phosphorylation in Rat1-myr-HA-p110 delta cells. The test is described as follows: Reverse protein array, PKB Ser473 phosphorylation in Rat1-myr-HA-p110 delta cells. The settings on record: Rattus norvegicus, 0.5 h, 30 minutes compound incubation, read-out: p-PKB/IC50_delta. The format is cell-based.
For `CNc1ccc(-c2ccc3ncc4c(c3c2)n(-c2ccc(F)nc2C)c(=O)n4C)cn1` [Example 7.4, 1-(6-Fluoro-2-methyl-pyridin-3-yl)-3-methyl-8-(6-methylamino-pyridin-3-yl)-1,3-dihydro-imidazo[4,5-c]quinolin-2-one], the IC50 was determined as 19.3 nM.
With `CCOc1cc(-c2ccc3ncc4c(c3c2)n(-c2ccc(F)nc2C)c(=O)n4C)cnc1COC` [Example 7.5, 8-(5-Ethoxy-6-methoxymethyl-pyridin-3-yl)-1-(6-fluoro-2-methyl-pyridin-3-yl)-3-methyl-1,3-dihydro-imidazo[4,5-c]quinolin-2-one] the figure was 182 nM; with `Cc1nc(F)ccc1-n1c(=O)n(C)c2cnc3ccc(-c4cncc(C(C)(C)O)c4)cc3c21` [Example 7.8, 1-(6-Fluoro-2-methyl-pyridin-3-yl)-8-[5-(1-hydroxy-1-methyl-ethyl)-pyridin-3-yl]-3-methyl-1,3-dihydro-imidazo[4,5-c]quinolin-2-one], 80.8 nM.
With `CCOc1ccc(-c2ccc3ncc4c(c3c2)n(-c2ccc(N3CCNCC3)nc2OC)c(=O)n4C)cn1` [Example 9.1, 8-(6-Ethoxy-pyridin-3-yl)-1-(2-methoxy-6-piperazin-1-yl-pyridin-3-yl)-3-methyl-1,3-dihydro-imidazo[4,5-c]quinolin-2-one] the figure was 32.8 nM; with `COc1nc(N2CCNCC2)ccc1-n1c(=O)n(C)c2cnc3ccc(-c4cnc(N)c(C(F)(F)F)c4)cc3c21` [Example 9.2, 8-(6-Amino-5-trifluoromethyl-pyridin-3-yl)-1-(2-methoxy-6-piperazin-1-yl-pyridin-3-yl)-3-methyl-1,3-dihydro-imidazo[4,5-c]quinolin-2-one], 23.9 nM.
With `Cc1nc(N2CCN(C)C(=O)C2)ccc1-n1c(=O)n(C)c2cnc3ccc(-c4cnc(N)c(C(F)(F)F)c4)cc3c21` [Example 21.1, 8-(6-Amino-5-trifluoromethyl-pyridin-3-yl)-3-methyl-1-[2-methyl-6-(4-methyl-3-oxo-piperazin-1-yl)-pyridin-3-yl]-1,3-dihydro-imidazo[4,5-c]quinolin-2-one] the figure was 10.3 nM; with `CCOc1cc(-c2ccc3ncc4c(c3c2)n(-c2ccc(OCCOC)nc2C)c(=O)n4C)cnc1COC` [Example 22.1, 8-(5-Ethoxy-6-methoxymethyl-pyridin-3-yl)-1-[6-(2-methoxy-ethoxy)-2-methyl-pyridin-3-yl]-3-methyl-1,3-dihydro-imidazo[4,5-c]quinolin-2-one], 207 nM; with `Cc1nc(N2CCC2)ccc1-n1c(=O)n(C)c2cnc3ccc(-c4cncc(N5CCC5)c4)cc3c21` [Example 23.1, 1-(6-Azetidin-1-yl-2-methyl-pyridin-3-yl)-8-(5-azetidin-1-yl-pyridin-3-yl)-3-methyl-1,3-dihydro-imidazo[4,5-c]quinolin-2-one], 66.9 nM.
For the compound `COCc1ncc(-c2ccc3ncc4c(c3c2)n(-c2ccc(N3CCC3)nc2C)c(=O)n4C)cc1OC(C)C` [Example 23.2, 1-(6-Azetidin-1-yl-2-methyl-pyridin-3-yl)-8-(5-isopropoxy-6-methoxymethyl-pyridin-3-yl)-3-methyl-1,3-dihydro-imidazo[4,5-c]quinolin-2-one], the IC50 amounted to 123 nM.
To `Cc1nc(N2CCC2)ccc1-n1c(=O)n(C)c2cnc3ccc(-c4cncc(C(C)(C)O)c4)cc3c21` [Example 23.3, 1-(6-Azetidin-1-yl-2-methyl-pyridin-3-yl)-8-[5-(1-hydroxy-1-methyl-ethyl)-pyridin-3-yl]-3-methyl-1,3-dihydro-imidazo[4,5-c]quinolin-2-one] belongs 42.2 nM; to `CNc1ccc(-c2ccc3ncc4c(c3c2)n(-c2ccc(N3CCC3)nc2C)c(=O)n4C)cn1` [Example 23.4, 1-(6-Azetidin-1-yl-2-methyl-pyridin-3-yl)-3-methyl-8-(6-methylamino-pyridin-3-yl)-1,3-dihydro-imidazo[4,5-c]quinolin-2-one], 23.8 nM.
With `CCOc1cc(-c2ccc3ncc4c(c3c2)n(-c2ccc(N3CCC3)nc2C)c(=O)n4C)cnc1COC` [Example 23.5, 1-(6-Azetidin-1-yl-2-methyl-pyridin-3-yl)-8-(5-ethoxy-6-methoxymethyl-pyridin-3-yl)-3-methyl-1,3-dihydro-imidazo[4,5-c]quinolin-2-one] the figure was 155 nM; with `COCc1ncc(-c2ccc3ncc4c(c3c2)n(-c2ccc(N3CCC3)nc2C)c(=O)n4C)cc1OC` [Example 23.6, 1-(6-Azetidin-1-yl-2-methyl-pyridin-3-yl)-8-(5-methoxy-6-methoxymethyl-pyridin-3-yl)-3-methyl-1,3-dihydro-imidazo[4,5-c]quinolin-2-one], 216 nM; with `CCNc1cc(-c2ccc3ncc4c(c3c2)n(-c2ccc(N3CCC3)nc2C)c(=O)n4C)cnc1CO` [Example 23.8, 1-(6-Azetidin-1-yl-2-methyl-pyridin-3-yl)-8-(5-ethylamino-6-hydroxymethyl-pyridin-3-yl)-3-methyl-1,3-dihydro-imidazo[4,5-c]quinolin-2-one], 10.2 nM.
With `Cc1nc(N2CCC2)ccc1-n1c(=O)n(C)c2cnc3ccc(-c4cncc(OC(C)C)c4)cc3c21` [Example 23.9, 1-(6-Azetidin-1-yl-2-methyl-pyridin-3-yl)-8-(5-isopropoxy-pyridin-3-yl)-3-methyl-1,3-dihydro-imidazo[4,5-c]quinolin-2-one], the IC50 was determined as 80.1 nM.
Turning to `CNc1ncc(-c2ccc3ncc4c(c3c2)n(-c2ccc(N3CC(F)(F)C3)nc2C)c(=O)n4C)cn1` [Example 24.1, 1-[6-(3,3-Difluoro-azetidin-1-yl)-2-methyl-pyridin-3-yl]-3-methyl-8-(2-methylamino-pyrimidin-5-yl)-1,3-dihydro-imidazo[4,5-c]quinolin-2-one], the IC50 was 42.6 nM.
With `CCOc1cc(-c2ccc3ncc4c(c3c2)n(-c2ccc(N3CCCC3)nc2C)c(=O)n4C)cnc1COC` [Example 25.2, 8-(5-Ethoxy-6-methoxymethyl-pyridin-3-yl)-3-methyl-1-(2-methyl-6-pyrrolidin-1-yl-pyridin-3-yl)-1,3-dihydro-imidazo[4,5-c]quinolin-2-one] the figure was 124 nM; with `Cc1nc(N2CCCC2)ccc1-n1c(=O)n(C)c2cnc3ccc(-c4cncc(C(C)(C)O)c4)cc3c21` [Example 25.3, 8-[5-(1-Hydroxy-1-methyl-ethyl)-pyridin-3-yl]-3-methyl-1-(2-methyl-6-pyrrolidin-1-yl-pyridin-3-yl)-1,3-dihydro-imidazo[4,5-c]quinolin-2-one], 25.4 nM; with `Cc1nc(N(C)CCO)ccc1-n1c(=O)n(C)c2cnc3ccc(-c4cnc(N)c(C(F)(F)F)c4)cc3c21` [Example 26.1, 8-(6-Amino-5-trifluoromethyl-pyridin-3-yl)-1-{6-[(2-hydroxy-ethyl)-methyl-amino]-2-methyl-pyridin-3-yl}-3-methyl-1,3-dihydro-imidazo[4,5-c]quinolin-2-one], less than 4.57 nM.
With `CNc1ncc(-c2ccc3ncc4c(c3c2)n(-c2ccc(N(C)CCO)nc2C)c(=O)n4C)cn1` [Example 26.2, 1-{6-[(2-Hydroxy-ethyl)-methyl-amino]-2-methyl-pyridin-3-yl}-3-methyl-8-(2-methylamino-pyrimidin-5-yl)-1,3-dihydro-imidazo[4,5-c]quinolin-2-one] the figure was 10.4 nM.
Regarding `CNc1ncc(-c2ccc3ncc4c(c3c2)n(-c2ccc(N3CCC(O)C3)nc2C)c(=O)n4C)cn1` (stereo not shown) [Example 27.2, 1-[6-(3-Hydroxy-pyrrolidin-1-yl)-2-methyl-pyridin-3-yl]-3-methyl-8-(2-methylamino-pyrimidin-5-yl)-1,3-dihydro-imidazo[4,5-c]quinolin-2-one], the IC50 was 20.7 nM.
In the case of `COC1CCN(c2ccc(-n3c(=O)n(C)c4cnc5ccc(-c6cncc(C(C)(C)O)c6)cc5c43)c(C)n2)C1` (stereo not shown) [Example 28.1, 8-[5-(1-Hydroxy-1-methyl-ethyl)-pyridin-3-yl]-1-[6-(3-methoxy-pyrrolidin-1-yl)-2-methyl-pyridin-3-yl]-3-methyl-1,3-dihydro-imidazo[4,5-c]quinolin-2-one], the IC50 is 39.9 nM.
`CCNc1cc(-c2ccc3ncc4c(c3c2)n(-c2ccc(N3CC(O)C3)nc2C)c(=O)n4C)cnc1CO` [Example 29.2, 8-(5-Ethylamino-6-hydroxymethyl-pyridin-3-yl)-1-[6-(3-hydroxy-azetidin-1-yl)-2-methyl-pyridin-3-yl]-3-methyl-1,3-dihydro-imidazo[4,5-c]quinolin-2-one]: the IC50 amounted to 39.7 nM.
To `CNc1ncc(-c2ccc3ncc4c(c3c2)n(-c2ccc(N3CC(O)C3)nc2C)c(=O)n4C)cc1F` [Example 29.3, 8-(5-Fluoro-6-methylamino-pyridin-3-yl)-1-[6-(3-hydroxy-azetidin-1-yl)-2-methyl-pyridin-3-yl]-3-methyl-1,3-dihydro-imidazo[4,5-c]quinolin-2-one] belongs 65.3 nM; to `CNc1ncc(-c2ccc3ncc4c(c3c2)n(-c2ccc(N3CC(O)C3)nc2C)c(=O)n4C)cc1C(F)(F)F` [Example 29.4, 1-[6-(3-Hydroxy-azetidin-1-yl)-2-methyl-pyridin-3-yl]-3-methyl-8-(6-methylamino-5-trifluoromethyl-pyridin-3-yl)-1,3-dihydro-imidazo[4,5-c]quinolin-2-one], 18.3 nM; to `COc1cc(-c2ccc3ncc4c(c3c2)n(-c2ccc(N3CC(O)C3)nc2C)c(=O)n4C)cnc1CO` [Example 29.5, 1-[6-(3-Hydroxy-azetidin-1-yl)-2-methyl-pyridin-3-yl]-8-(6-hydroxymethyl-5-methoxy-pyridin-3-yl)-3-methyl-1,3-dihydro-imidazo[4,5-c]quinolin-2-one], 401 nM.
To `COc1ncc(-c2ccc3ncc4c(c3c2)n(-c2ccc(N3CC(O)C3)nc2C)c(=O)n4C)c(OC)n1` [Example 29.6, 8-(2,4-Dimethoxy-pyrimidin-5-yl)-1-[6-(3-hydroxy-azetidin-1-yl)-2-methyl-pyridin-3-yl]-3-methyl-1,3-dihydro-imidazo[4,5-c]quinolin-2-one] belongs 119 nM; to `CNc1ncc(-c2ccc3ncc4c(c3c2)n(-c2ccc(C(C)(C)O)nc2C)c(=O)n4C)cc1F` [Example 31.1, 8-(5-Fluoro-6-methylamino-pyridin-3-yl)-1-[6-(1-hydroxy-1-methyl-ethyl)-2-methyl-pyridin-3-yl]-3-methyl-1,3-dihydro-imidazo[4,5-c]quinolin-2-one], 36 nM.

The record behind these values is patent US20100311714A1, “1H-IMIDAZO[4,5-c]QUINOLINONE COMPOUNDS” (priority 2009, published 2010).
